Measured values as given in the supplement of paper PMC10307832.

Key:
Assay in all cases: relative viability (nuclei count vs DMSO), 5 days (fraction); higher = more cells survive
Olaparib + Pictilisib = compound: O=C(c1cc(Cc2n[nH]c(=O)c3ccccc23)ccc1F)N1CCN(C(=O)C2CC2)CC1 [Olaparib] + CS(=O)(=O)N1CCN(Cc2cc3nc(-c4cccc5[nH]ncc45)nc(N4CCOCC4)c3s2)CC1 [Pictilisib] (partner 1 µM)
Method in brief: (§1)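 The day after seeding in 1536-well plates, lung cancer cell lines were treated by pin tool with a single drug, or with a fixed anchor-drug dose together with five library-drug doses (not always all listed) in √10 steps. After 5 days, a combined fix-and-stain solution (final 0.05% Triton X-100, 1% formaldehyde, 1 ug/ml Hoechst) was added. Nuclei counted on 4× images gave relative viability as treated counts over vehicle counts, reported as the median of duplicate plates.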

Carfilzomib + Vorinostat = compound: CC(C)C[C@H](NC(=O)[C@H](CCc1ccccc1)NC(=O)CN1CCOCC1)C(=O)N[C@@H](Cc1ccccc1)C(=O)N[C@@H](CC(C)C)C(=O)[C@@]1(C)CO1 [Carfilzomib] + O=C(CCCCCCC(=O)Nc1ccccc1)NO [Vorinostat] (partner 1 µM)
Method in brief: as §1

Crizotinib + Vorinostat = compound: C[C@@H](Oc1cc(-c2cnn(C3CCNCC3)c2)cnc1N)c1c(Cl)ccc(F)c1Cl [Crizotinib] + O=C(CCCCCCC(=O)Nc1ccccc1)NO [Vorinostat] (partner 1 µM)
Method in brief: as §1

Olaparib + Pemetrexed = compound: O=C(c1cc(Cc2n[nH]c(=O)c3ccccc23)ccc1F)N1CCN(C(=O)C2CC2)CC1 [Olaparib] + Nc1nc2[nH]cc(CCc3ccc(C(=O)N[C@@H](CCC(=O)O)C(=O)O)cc3)c2c(=O)[nH]1 [Pemetrexed] (partner 0.2 µM)
Method in brief: as §1

| Cell Line | relative viability (Olaparib + Pictilisib; first compound 0.08 µM) | relative viability (Olaparib + Pictilisib; first compound 0.253 µM) | relative viability (Olaparib + Pictilisib; first compound 2.53 µM) | relative viability (Olaparib + Pictilisib; first compound 8 µM) | relative viability (Carfilzomib + Vorinostat; first compound 0.001 µM) | relative viability (Carfilzomib + Vorinostat; first compound 0.003162 µM) | relative viability (Carfilzomib + Vorinostat; first compound 0.01 µM) | relative viability (Carfilzomib + Vorinostat; first compound 0.03162 µM) | relative viability (Carfilzomib + Vorinostat; first compound 0.1 µM) | relative viability (Crizotinib + Vorinostat; first compound 0.01 µM) | relative viability (Crizotinib + Vorinostat; first compound 0.03162 µM) | relative viability (Crizotinib + Vorinostat; first compound 0.1 µM) | relative viability (Crizotinib + Vorinostat; first compound 0.3162 µM) | relative viability (Crizotinib + Vorinostat; first compound 1 µM) | relative viability (Olaparib + Pemetrexed; first compound 0.08 µM) | relative viability (Olaparib + Pemetrexed; first compound 0.253 µM) | relative viability (Olaparib + Pemetrexed; first compound 2.53 µM) | relative viability (Olaparib + Pemetrexed; first compound 8 µM) |
| --- | --- | --- | --- | --- | --- | --- | --- | --- | --- | --- | --- | --- | --- | --- | --- | --- | --- | --- |
| EBC-1 | 0.392 | 0.345 | 0.368 | 0.304 |  |  |  |  |  |  |  |  |  |  |  |  |  |  |
| EKVX | 0.493 | 0.444 | 0.41 | 0.477 | 0.663 | 0.958 | 0.783 | 0.561 | 0.231 | 0.455 | 0.662 | 0.708 | 0.712 | 0.637 | 0.425 | 0.401 | 0.418 | 0.365 |
| EMC-BAC-2 | 0.662 | 0.5 | 0.524 | 0.496 | 0.434 | 0.587 | 0.524 | 0.247 | 0.126 | 0.524 | 0.418 | 0.494 |  | 0.365 | 0.473 | 0.478 | 0.472 | 0.491 |
| IA-LM | 0.392 | 0.372 | 0.321 | 0.317 | 0.921 | 0.889 | 0.932 | 0.193 | 0.0116 | 0.977 | 0.958 | 1.07 | 0.949 | 0.907 |  |  |  |  |
| NCI-H522 |  |  |  |  | 0.888 | 1.01 | 0.841 | 0.426 | 0.412 | 0.851 | 1.03 | 0.803 | 0.877 | 0.867 | 1.05 | 0.931 | 0.833 | 1.04 |
| NCI-H727 | 0.416 | 0.446 | 0.352 | 0.284 | 0.999 | 1.14 | 1.45 | 1.01 | 0.651 | 1.16 | 1.1 | 1.3 | 1.16 | 1.37 |  |  |  |  |
| NCI-H1299 | 0.815 | 0.805 | 0.8 | 0.582 |  |  |  |  |  |  |  |  |  |  |  |  |  |  |
| NCI-H1563 | 0.614 | 0.645 | 0.695 | 0.635 |  |  |  |  |  |  |  |  |  |  | 0.91 | 0.76 | 0.834 | 0.686 |
| NCI-H1648 |  |  |  |  | 0.64 | 0.613 | 0.954 | 0.28 | 0.212 |  | 0.412 | 0.341 | 0.506 | 0.619 | 0.967 | 0.708 |  | 0.735 |
| NCI-H1703 | 0.299 | 0.346 | 0.275 | 0.27 |  |  |  |  |  |  |  |  |  |  |  |  |  |  |
| NCI-H1792 | 0.265 | 0.241 | 0.265 | 0.217 |  |  |  |  |  |  |  |  |  |  | 0.86 | 0.547 | 0.605 | 0.398 |
| NCI-H2342 |  |  |  |  | 0.731 | 0.675 | 0.876 | 0.733 | 0.421 | 0.799 | 0.844 | 0.714 | 0.713 | 0.814 | 0.806 | 0.751 | 0.753 | 0.761 |
| SW 900 |  |  |  |  |  | 0.469 | 0.198 | 0.168 | 0.188 | 0.422 | 0.615 | 0.511 | 0.481 | 0.712 | 0.502 | 0.461 | 0.456 | 0.457 |
